How the values were obtained:
RALDH1 = target: T1, RALDH1 (Mus musculus, UniProt P24549); assay: RALDH oxidation assay, transfected HEK-293S homogenate; format: biochemical; conditions: cell homogenate with NAD, NADP, ATP
T1 construct: expressed in transfected cells; host or cells: GnTI-negative HEK-293S, transient; cell homogenate
T1 sequence (P24549 1-501): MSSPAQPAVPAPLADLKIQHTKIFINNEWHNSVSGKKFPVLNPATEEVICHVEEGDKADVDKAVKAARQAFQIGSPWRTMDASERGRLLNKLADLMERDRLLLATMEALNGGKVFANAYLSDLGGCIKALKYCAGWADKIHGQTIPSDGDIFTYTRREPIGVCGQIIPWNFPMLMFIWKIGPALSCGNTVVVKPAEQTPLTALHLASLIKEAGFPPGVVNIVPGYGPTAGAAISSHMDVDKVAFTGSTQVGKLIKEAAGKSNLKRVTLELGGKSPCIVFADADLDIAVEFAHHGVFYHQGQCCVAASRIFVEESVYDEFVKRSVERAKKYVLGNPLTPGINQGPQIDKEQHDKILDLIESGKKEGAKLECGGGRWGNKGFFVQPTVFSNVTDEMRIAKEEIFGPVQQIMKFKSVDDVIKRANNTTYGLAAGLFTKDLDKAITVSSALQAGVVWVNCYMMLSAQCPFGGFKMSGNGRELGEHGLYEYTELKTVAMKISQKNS
Method: (§1) RALDH Oxidation Assay. N-Acetylglucosaminyltransferase I-negative HEK-293S cells, obtained from Dr. G. Khorana (Massachusetts Institute of Technology, Boston) were cultured in Dulbecco's modified Eagle's medium, 10% fetal calf serum and maintained at 37° C., 5% CO2, and 100% humidity. Reeves, et al. Proc. Natl. Acad. Sci. U.S.A. 99:13419-13424, 2002. For RALDH enzyme assays, cells were transiently transfected with RALDH1, -2, -3, or -4 expression constructs using Lipofectamine 2000 (Invitrogen) according to the manufacturer's protocol. After 48 h post-transfection, the cells were collected by scraping and were centrifuged. The cell pellet was washed in 137 mM NaCl, 2.7 mM KCl, and 10 mM phosphate (pH 7.4), resuspended in 50 mM Tris (pH 8.0) containing 250 mM sucrose, and homogenized with the aid of a Dounce homogenizer. Cofactors were added to a final concentration of 5 mM NAD, 5 mM NADP, and 1 mM ATP. An aliquot of the cell lysate was boiled for 10 min at 95° C. to provide the control for the nonenzymatic reaction. Substrates in the form of all-trans-RAL or a mixture of isomers of DRAL were added to the cell lysates at a final concentration of 60 μM. The reactions were allowed to proceed for 2 h at 37° C. with shaking and were stopped by the addition of 2 volumes of CH3CN. […] After each run, the column was washed with mixture B (60% tert-butylmethyl ether, 40% methanol) for 10 min at 1.6 ml/min, followed by re-equilibration in phase A. The elution of RA and DRA isomers was monitored at 340 and 290 nm, respectively. The peaks were identified based on their spectra and coelution with standards. The cell lysate was examined for expression of RALDH1-4 by SDS-PAGE and immunoblotting of the V5 epitope-tagged recombinant protein using an anti-V5 epitope monoclonal antibody (Invitrogen).

RALDH3 = target: T2, RALDH3 (Mus musculus, UniProt Q9JHW9); assay: as above; format: biochemical; conditions: cell homogenate with NAD, NADP, ATP
T2 construct: expressed in transfected cells; host or cells: GnTI-negative HEK-293S, transient; cell homogenate
T2 sequence (Q9JHW9 1-512): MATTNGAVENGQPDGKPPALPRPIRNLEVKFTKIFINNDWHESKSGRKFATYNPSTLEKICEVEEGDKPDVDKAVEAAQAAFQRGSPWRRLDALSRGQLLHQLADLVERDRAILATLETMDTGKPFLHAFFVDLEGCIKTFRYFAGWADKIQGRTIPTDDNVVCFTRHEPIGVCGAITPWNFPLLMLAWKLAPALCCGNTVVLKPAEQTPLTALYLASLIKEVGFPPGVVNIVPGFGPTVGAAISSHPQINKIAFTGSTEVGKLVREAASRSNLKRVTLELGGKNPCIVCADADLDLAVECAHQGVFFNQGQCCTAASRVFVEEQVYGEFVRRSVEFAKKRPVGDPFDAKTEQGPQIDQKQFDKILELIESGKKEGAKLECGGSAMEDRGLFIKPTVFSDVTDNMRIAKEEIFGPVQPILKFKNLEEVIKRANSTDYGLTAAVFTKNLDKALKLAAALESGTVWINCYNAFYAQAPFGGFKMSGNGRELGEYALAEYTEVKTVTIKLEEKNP
Method: as §1

RALDH4 = target: T3, RALDH4 (Mus musculus, UniProt Q8BH00); assay: as above; format: biochemical; conditions: cell homogenate with NAD, NADP, ATP
T3 construct: The full-length cDNA of RALDH2 (MGC:76772, IMAGE: 30471325), RALDH4 (MGC:46977, IMAGE:4223059), and CYP26A1 (MGC:13860, IMAGE:4210893) mRNA was obtained; expressed in transfected cells; host or cells: GnTI-negative HEK-293S, transient; cell homogenate
T3 sequence (Q8BH00 1-487): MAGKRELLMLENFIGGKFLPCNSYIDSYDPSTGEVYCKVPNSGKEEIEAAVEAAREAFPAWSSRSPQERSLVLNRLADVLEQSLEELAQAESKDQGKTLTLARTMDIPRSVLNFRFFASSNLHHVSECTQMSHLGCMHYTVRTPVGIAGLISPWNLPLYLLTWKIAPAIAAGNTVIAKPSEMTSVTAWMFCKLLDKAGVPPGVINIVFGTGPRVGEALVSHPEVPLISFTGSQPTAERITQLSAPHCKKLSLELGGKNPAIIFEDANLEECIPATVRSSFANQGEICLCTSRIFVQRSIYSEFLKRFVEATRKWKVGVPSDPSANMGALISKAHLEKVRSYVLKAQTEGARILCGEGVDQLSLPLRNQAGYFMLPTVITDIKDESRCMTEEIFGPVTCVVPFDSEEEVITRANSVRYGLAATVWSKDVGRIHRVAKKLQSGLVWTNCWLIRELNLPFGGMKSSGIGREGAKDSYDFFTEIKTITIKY
Method: as §1

RALDH2 = target: T4, RALDH2 (Mus musculus, UniProt Q62148); assay: as above; format: biochemical; conditions: cell homogenate with NAD, NADP, ATP
T4 construct: The full-length cDNA of RALDH2 (MGC:76772, IMAGE: 30471325), RALDH4 (MGC:46977, IMAGE:4223059), and CYP26A1 (MGC:13860, IMAGE:4210893) mRNA was obtained; expressed in transfected cells; host or cells: GnTI-negative HEK-293S, transient; cell homogenate
T4 sequence (Q62148 1-518): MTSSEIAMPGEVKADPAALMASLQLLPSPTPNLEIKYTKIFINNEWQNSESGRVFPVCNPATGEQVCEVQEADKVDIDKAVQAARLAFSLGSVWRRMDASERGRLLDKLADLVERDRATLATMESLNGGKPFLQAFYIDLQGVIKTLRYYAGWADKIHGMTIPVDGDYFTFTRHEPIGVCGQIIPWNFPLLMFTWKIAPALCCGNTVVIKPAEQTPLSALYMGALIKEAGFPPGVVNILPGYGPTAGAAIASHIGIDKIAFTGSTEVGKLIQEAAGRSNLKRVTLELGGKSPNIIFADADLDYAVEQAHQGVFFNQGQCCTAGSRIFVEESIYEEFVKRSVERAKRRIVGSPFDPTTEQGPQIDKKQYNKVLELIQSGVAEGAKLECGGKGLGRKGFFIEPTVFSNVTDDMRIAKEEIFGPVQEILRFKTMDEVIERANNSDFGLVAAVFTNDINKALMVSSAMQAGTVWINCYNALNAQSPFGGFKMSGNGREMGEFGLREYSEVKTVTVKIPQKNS
Method: as §1

mouse RALDH1 = target: T5, mouse RALDH1 (Mus musculus, UniProt P24549); conditions: cited from earlier work
T5 sequence (P24549 1-501): T1 sequence (P24549 1-501)

mouse RALDH2 = target: T6, mouse RALDH2 (Mus musculus, UniProt Q62148); conditions: cited from earlier work
T6 sequence (Q62148 1-518): T4 sequence (Q62148 1-518)

Structure (SMILES)	Oxidation to the acid by RALDH1 (RALDH1)	Oxidation to the acid by RALDH3 (RALDH3)	Oxidation to the acid by RALDH4 (RALDH4)	Oxidation to the acid by RALDH2 (RALDH2)	Km (mouse RALDH1)	Km (mouse RALDH2)
CC(C=CC1=C(C)CCCC1(C)C)=CC=CC(C)CC=O (stereo not drawn) [all-trans-DRAL, 13,14-dihydroretinaldehyde]	less efficient	efficiently converted	less efficient	efficiently converted	–	–
CC1=C(/C=C/C(C)=C/C=C/C(C)=C/C=O)C(C)(C)CCC1 [all-trans-RAL, all-trans-retinal, reference compound]	less efficient	efficiently converted	less efficient	efficiently converted	11.6 µM	0.66 µM
